How the values were obtained:
CD18 (integrin β2) = test: Surface CD18 expression, flow cytometry; type: cell-based, human; settings: 1-10 μM bletinib; 0.1 μM fMLF/CB
Procedure: Neutrophils (5×10^5 cells/mL) were incubated with bletinib or DMSO for 5 min and then activated through incubation with 0.1 μM fMLF/1 μg/mL CB for 5 min. After centrifugation at 200×g for 8 min at 4° C., the cells were resuspended in 5% bovine serum albumin with FITC-conjugated antibodies against CD18 or CD11b on ice in the dark for 15 min. The fluorescent intensity was then analysed through fluorescence-activated cell sorting.

human neutrophils [1] = test: Total ROS production, luminol-amplified chemiluminescence; type: cell-based; settings: 0.1-3 μM bletinib; 0.1 μM fMLF; dose-dependent
Procedure: Human neutrophils (2×10^6 cells/mL) were preincubated with 6 U mL^−1 horseradish peroxidase (HRP) and 37.5 μM luminol in a 96-well plate at 37° C. for 5 min. Cells were incubated with DMSO or bletinib for 5 min, followed by 0.1 μM fMLF stimulation. Chemiluminescence was then detected and analysed in real time on a 96-well chemiluminometer (Tecan Infinite F200 Pro; Mannedorf, Switzerland).

Lyn = Lyn (Homo sapiens, UniProt P07948); test: Cell-free ADP-Glo kinase assay, Lyn; type: biochemical; settings: 1-10 μM bletinib or 0.1-3 μM PP2; 125 μM ATP; concentration-dependent
Sequence of Lyn (P07948 whole entry): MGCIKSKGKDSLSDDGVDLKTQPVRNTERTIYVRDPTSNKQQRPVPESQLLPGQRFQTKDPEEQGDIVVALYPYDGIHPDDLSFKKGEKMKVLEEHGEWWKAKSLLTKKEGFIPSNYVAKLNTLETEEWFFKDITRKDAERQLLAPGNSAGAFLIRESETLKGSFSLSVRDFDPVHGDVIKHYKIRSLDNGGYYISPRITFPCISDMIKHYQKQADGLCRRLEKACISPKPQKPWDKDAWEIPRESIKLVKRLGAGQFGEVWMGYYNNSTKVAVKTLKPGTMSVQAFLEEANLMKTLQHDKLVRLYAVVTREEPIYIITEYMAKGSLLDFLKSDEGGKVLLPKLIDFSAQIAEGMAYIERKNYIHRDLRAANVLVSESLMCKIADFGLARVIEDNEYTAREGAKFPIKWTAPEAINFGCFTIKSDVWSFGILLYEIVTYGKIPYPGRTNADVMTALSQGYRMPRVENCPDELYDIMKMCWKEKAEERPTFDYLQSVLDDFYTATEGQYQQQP
Procedure: (§1) The kinase activity of SFKs was assessed using an ADP-Glo kinase assay kit (Promega, Fitchburg, USA) according to manufacturer instructions. […] The ADP-Glo reagent was used to end the kinase reaction and remove the remnant ATP; next, the kinase, which converted ADP to ATP, detection reagent was added and incubated for 30 min. Luciferin/luciferase luminescence was determined on an Infinite 200 Pro (Tecan, Switzerland).

Src = Src (Homo sapiens, UniProt P12931); test: Cell-free ADP-Glo kinase assay, Src; type: biochemical; settings: 1-10 μM bletinib or 0.1-3 μM PP2; 125 μM ATP; concentration-dependent
Sequence of Src (P12931 whole entry): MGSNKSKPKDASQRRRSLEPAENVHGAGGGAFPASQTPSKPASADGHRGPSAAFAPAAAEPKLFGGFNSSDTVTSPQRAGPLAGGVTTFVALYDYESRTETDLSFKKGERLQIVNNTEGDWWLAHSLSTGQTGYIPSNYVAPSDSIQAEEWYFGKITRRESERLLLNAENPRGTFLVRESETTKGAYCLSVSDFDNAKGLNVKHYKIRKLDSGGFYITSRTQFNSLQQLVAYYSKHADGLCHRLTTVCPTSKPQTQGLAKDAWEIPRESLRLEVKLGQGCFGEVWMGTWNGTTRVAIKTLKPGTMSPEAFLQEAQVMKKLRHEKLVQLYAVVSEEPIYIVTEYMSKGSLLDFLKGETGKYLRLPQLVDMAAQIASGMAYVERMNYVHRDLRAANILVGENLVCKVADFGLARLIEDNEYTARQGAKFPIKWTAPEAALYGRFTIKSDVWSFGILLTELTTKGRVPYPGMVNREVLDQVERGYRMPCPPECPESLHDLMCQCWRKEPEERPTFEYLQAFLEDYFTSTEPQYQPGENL
Procedure: as §1

Akt (S473) = test: Immunoblotting of neutrophil lysates, Akt phosphorylation; type: cell-based, human; settings: 10 μM bletinib; 0.1 μM fMLF
Procedure: (§2) Neutrophils incubated with bletinib or DMSO at 37° C. for 5 min were stimulated with 0.1 μM fMLF for 30 s. The proteins were separated from neutrophil lysates through electrophoresis (12% sodium dodecyl sulphate-polyacrylamide gel electrophoresis) and then transferred to nitrocellulose membranes. The target proteins were identified through immunoblotting with specific antibodies against p38, p-p38, Akt, p-Akt S473, ERK, p-ERK, INK, p-JNK, Src, p-SFKs Y416, p-Src Y416, Lyn, p-Lyn (Y396), Fgr, p-Fgr (Y412), Hck, p-Hck (Y410), Btk, p-Btk Y223, Vav, and p-Vav (Y174) as well as with HRP-conjugated secondary anti-rabbit antibody (Cell Signaling Technology). The signal intensity was detected and quantified using the UVP BioSpectrum Imaging System (Analytik Jena, USA).

human neutrophils [2] = test: Cytotoxicity assessed using LDH release; type: cell-based
Procedure: FIG. 1 Bletinib suppressed superoxide anion production in stimulated human neutrophils. Neutrophils (6×10^5 cells/mL) were incubated with 0.1% DMSO or […] bletinib for 5 min before activation with stimuli. Superoxide anion production was induced by (A) fMLF, (B) MMK-1, (C) NaF, or (D) PMA and then measured using ferricytochrome c reduction method. (E) Cytotoxicity was assessed using LDH release. (F) Superoxide scavenging capacity of bletinib was assessed in a xanthine/xanthine oxidase cell-free system. WST-1 reduction was measured through spectrophotometry at 450 nm, with 20 U/mL superoxide dismutase as the positive control.

Fgr (Y412) = test: Immunoblotting of neutrophil lysates, Fgr phosphorylation; type: cell-based, human; settings: 0.1 μM fMLF-stimulated neutrophils
Procedure: as §2

human neutrophils [3] = test: Intracellular superoxide/ROS production, DHR123 flow cytometry; type: cell-based; settings: 0.1-3 μM bletinib; 0.1 μM fMLF; dose-dependent
Procedure: Human neutrophils (2.5×10^6 cells/mL) were labelled using 2 μM dihydrorhodamine 123 (DHR123) at 37° C. for 10 min and then incubated with DMSO or bletinib for 5 min and then stimulated with 0.1 μM fMLF/0.5 μg/mL CB for 15 min. The fluorescence intensity was detected through flow cytometry to evaluate intracellular superoxide anion production of human neutrophils.

Src (Y416) = test: Immunoblotting of neutrophil lysates, Src phosphorylation; type: cell-based, human; settings: 0.1 μM fMLF-stimulated neutrophils
Procedure: as §2

human neutrophils [4] = test: Neutrophil elastase (NE) release (degranulation); type: cell-based
Procedure: Human neutrophils (6×10^5 cells/mL) were incubated with DMSO or bletinib after treatment with 1 mM CaCl2 and 100 μM NE substrate (Methoxysuccinyl-Ala-Ala-Pro-Val-p-nitroanilide) at 37° C. for 5 min. Cells were stimulated with fMLF/0.5 μg mL^−1 CB, leukotriene B4 (LTB4)/2 μg mL^−1 CB, NaF/2 μg mL^−1 CB, or MMK-1/0.5 μg mL-1 CB for 10 min before determination of NE release by measuring the change of absorbance at 405 nm in a spectrophotometer.

p-ERK = test: Immunoblotting of neutrophil lysates, ERK phosphorylation; type: cell-based, human; settings: 10 μM bletinib; 0.1 μM fMLF
Procedure: as §2

human neutrophils [5] = test: NET formation, quantification of extracellular DNA with Sytox green; type: cell-based; settings: 10 nM PMA; 1-10 μM bletinib
Procedure: Human neutrophils (10^6 cells/mL) resuspended in HBSS with 2.5 μM Sytox green were incubated with DMSO or bletinib for 10 min and stimulated using 10 nM PMA or 10 μg/mL LPS for 3 h. The fluorescence intensity was quantified on a Tecan Infinite 200 reader at 485-535 nm.

COc1cc(O)cc(CCc2c(Cc3ccc(O)cc3)ccc(O)c2Cc2ccc(O)cc2)c1 [bletinib, 3,3′-dihydroxy-2′,6′-bis(p-hydroxybenzyl)-5-methoxybibenzyl]
expression of CD18 in fMLF-stimulated human neutrophils (CD18 (integrin β2)): significantly attenuated
ROS production, luminol-amplified chemiluminescence (human neutrophils [1]): significantly suppressed
kinase activity of Lyn (Lyn): inhibited
kinase activity of Src (Src): inhibited
phosphorylation of Akt (Akt (S473)): but not
cytotoxicity (LDH release) (human neutrophils [2]): did not exhibit cytotoxicity
phosphorylation of Fgr (Y412) (Fgr (Y412)): significantly inhibited
intracellular ROS production, flow cytometry (DHR123 MFI) (human neutrophils [3]): significantly suppressed
phosphorylation of Src (Y416) (Src (Y416)): significantly inhibited
IC50 (human neutrophils [4]; Homo sapiens, Neutrophil, fMLF/CB stimulation, read-out: release of NE in fMLF-stimulated human neutrophils, IC50): 530 ± 70 nM
NE release from neutrophils stimulated with LTB4 (human neutrophils [4]; LTB4/CB, 0.1-10 μM bletinib, concentration-dependent): downregulated
NE release from neutrophils stimulated with MMK-1 (human neutrophils [4]; MMK-1/CB, 0.1-10 μM bletinib, concentration-dependent): downregulated
NE release from neutrophils stimulated with NaF (human neutrophils [4]; NaF/CB, 0.1-10 μM bletinib, concentration-dependent): downregulated
phosphorylation of ERK (p-ERK): significantly inhibited
NET formation induced by PMA, fluorescent spectrometry (Sytox green) (human neutrophils [5]): significantly mitigated

— patent US20220339122A1, “METHODS FOR THE TREATMENT OF DISEASES ASSOCIATED WITH DYSREGULATED ACTIVATION AND RECRUITMENT OF NEUTROPHILS” (Chang Gung University, priority 2021, published 2022)
